Here are results for 17 molecules from patent US11897880B2, “7,8-dihydrobenzo[e]pyrido[3,4-c]azocine-2,5(3H,6H)-dione derivatives useful as a factor XIa inhibitors” (Janssen Pharmaceutica NV, priority 2021, dated 2024).

In one test the target is Factor XIa (Homo sapiens, UniProt P03951). In words: Factor XIa inhibition assay utilizing a fluorophore-quencher pair peptide substrate (FLINT). In kind it is biochemical. The note with it: for IC50: read-out: FXIa IC50; for Ki: read-out: FXIa Ki. Put shortly: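 Enzyme preincubated 30 min at room temperature with compound (11-point 3-fold dilution, top 100 nM, 2% DMSO), then 15 μM 5Fam-KLTRAETV-K5Tamra substrate added. Buffer: 50 mM Tris pH 7.5, 100 mM NaCl, 5 mM CaCl2, 0.1 mg/mL BSA, 0.03% CHAPS. Fluorescence (485/520 nm) read kinetically over 30 min; IC50 from 4-parameter logistic fit.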
Chain of Factor XIa (P03951 388-625 limits assumed): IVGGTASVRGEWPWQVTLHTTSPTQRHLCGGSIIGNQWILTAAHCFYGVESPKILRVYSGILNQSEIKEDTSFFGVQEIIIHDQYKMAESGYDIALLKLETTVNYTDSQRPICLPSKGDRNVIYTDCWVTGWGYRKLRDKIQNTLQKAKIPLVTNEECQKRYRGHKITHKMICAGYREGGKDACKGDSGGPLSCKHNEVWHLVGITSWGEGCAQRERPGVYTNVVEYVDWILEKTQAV
Chain of Factor XIa (P03951 19-387 partner limits assumed): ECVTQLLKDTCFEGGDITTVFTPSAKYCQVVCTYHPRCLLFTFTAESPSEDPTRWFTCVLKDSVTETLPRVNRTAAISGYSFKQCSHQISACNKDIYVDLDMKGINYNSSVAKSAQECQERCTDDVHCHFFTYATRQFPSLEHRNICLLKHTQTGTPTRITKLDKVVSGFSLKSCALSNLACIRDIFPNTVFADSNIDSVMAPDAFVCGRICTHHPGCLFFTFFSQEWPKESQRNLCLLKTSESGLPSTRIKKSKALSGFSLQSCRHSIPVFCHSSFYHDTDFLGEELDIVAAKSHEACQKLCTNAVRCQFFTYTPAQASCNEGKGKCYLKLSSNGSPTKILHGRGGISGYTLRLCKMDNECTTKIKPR

The next test concerns the target human plasma kallikrein (Homo sapiens, UniProt P03952). In words: Kallikrein inhibition assay utilizing a quenched AMC peptide substrate (FLINT). In kind it is biochemical. The settings on record: 30 min preincubation, 50 μM Z-Gly-Pro-Arg-AMC, 2 nM kallikrein. Put shortly: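 Human plasma kallikrein (2 nM final) was preincubated 30 min at room temperature with compound (11-point 3-fold dilution, top 1 μM, 2% DMSO) in pH 7.5 Tris buffer with CaCl2, BSA and CHAPS. Z-Gly-Pro-Arg-AMC (50 μM final) fluorescence was read at 340/440 nm every 5 min for 30 min. IC50 came from a 4-parameter logistic fit.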

[1] abbreviates: 30 min preincubation, 5Fam-KLTRAETV-K5Tamra substrate 15 μM final, kinetic reads.
Setting [2] is: cells that print μM themselves in the nM column.
The mark [3] stands for this setting: cells that print μM themselves in the nM column, same assay conditions.

Read-outs that look alike come from different tables or passages of the source.

Chain of human plasma kallikrein (P03952 391-638 limits assumed): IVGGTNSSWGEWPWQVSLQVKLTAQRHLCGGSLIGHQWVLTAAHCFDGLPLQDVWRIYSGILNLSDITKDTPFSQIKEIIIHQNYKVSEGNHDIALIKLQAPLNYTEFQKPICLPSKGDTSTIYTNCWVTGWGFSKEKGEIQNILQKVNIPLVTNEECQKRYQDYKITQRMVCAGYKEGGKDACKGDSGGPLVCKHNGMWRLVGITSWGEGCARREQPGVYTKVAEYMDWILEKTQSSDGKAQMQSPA
Chain of human plasma kallikrein (P03952 20-390 partner limits assumed): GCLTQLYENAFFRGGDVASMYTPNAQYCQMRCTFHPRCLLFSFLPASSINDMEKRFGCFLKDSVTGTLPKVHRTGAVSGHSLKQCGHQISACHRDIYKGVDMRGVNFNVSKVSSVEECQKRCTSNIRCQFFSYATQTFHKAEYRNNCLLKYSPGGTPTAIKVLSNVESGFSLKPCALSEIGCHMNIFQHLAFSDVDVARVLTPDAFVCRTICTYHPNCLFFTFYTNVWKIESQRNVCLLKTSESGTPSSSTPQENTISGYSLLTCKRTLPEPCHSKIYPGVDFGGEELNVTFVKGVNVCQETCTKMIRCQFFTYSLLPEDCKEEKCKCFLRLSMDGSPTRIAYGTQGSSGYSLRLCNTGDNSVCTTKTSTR

For the molecule `O=C1NC2(CC2)Cc2ccc(Cl)c(F)c2-c2cc(=O)n(C(CC3CC3)c3ncc(-c4ccncc4)[nH]3)cc21` (single isomer, unassigned) [Compound 66, (R*)-11-chloro-3-(2-cyclopropyl-1-(5-(pyridin-4-yl)-1H-imidazol-2-yl)ethyl)-12-fluoro-3H-spiro[benzo[e]pyrido[3,4-c]azocine-7,1′-cyclopropane]-2,5(6H,8H)-dione], the IC50 is 0.183 µM at Factor XIa (setting [1]) and greater than 10000 nM on human plasma kallikrein. Besides, the Ki at Factor XIa is 0.0917 µM.

On to `O=C1NC2(CC2)Cc2ccc(Cl)c(F)c2-c2cc(=O)n([C@@H](CC3CC3)c3ncc(-c4ccncc4)[nH]3)cc21` (single isomer, unassigned) [Compound 67, (S*)-11-chloro-3-(2-cyclopropyl-1-(5-(pyridin-4-yl)-1H-imidazol-2-yl)ethyl)-12-fluoro-3H-spiro[benzo[e]pyrido[3,4-c]azocine-7,1′-cyclopropane]-2,5(6H,8H)-dione], for which the figures for the half-inhibitory concentration (IC50) at Factor XIa (setting [1]) and against human plasma kallikrein were 0.0129 µM and 1390 nM, respectively. Moreover, the Ki at Factor XIa is 0.0064 µM.

For `Cn1ccc(-c2cnc(C(CC3CC3)n3cc4c(cc3=O)-c3c(ccc(Cl)c3F)CC3(CC3)NC4=O)[nH]2)cc1=O` (single isomer, unassigned) [Compound 68, (R*)-11-chloro-3-(2-cyclopropyl-1-(5-(1-methyl-2-oxo-1,2-dihydropyridin-4-yl)-1H-imidazol-2-yl)ethyl)-12-fluoro-3H-spiro[benzo[e]pyrido[3,4-c]azocine-7,1′-cyclopropane]-2,5(6H,8H)-dione], the Ki at Factor XIa (setting [2]) turned out to be 1.12 µM. Further, the IC50 is 2.24 µM at Factor XIa (setting [3]) and greater than 10000 nM at human plasma kallikrein.

For the molecule `Cn1ccc(-c2cnc([C@H](CC3CC3)n3cc4c(cc3=O)-c3c(ccc(Cl)c3F)CC3(CC3)NC4=O)[nH]2)cc1=O` (single isomer, unassigned) [Compound 69, (S*)-11-chloro-3-(2-cyclopropyl-1-(5-(1-methyl-2-oxo-1,2-dihydropyridin-4-yl)-1H-imidazol-2-yl)ethyl)-12-fluoro-3H-spiro[benzo[e]pyrido[3,4-c]azocine-7,1′-cyclopropane]-2,5(6H,8H)-dione], the half-inhibitory concentration (IC50) on Factor XIa (setting [1]) was 0.108 µM; against human plasma kallikrein, 8080 nM. Besides, at Factor XIa, the inhibitory constant (Ki) worked out at 0.0541 µM.

Consider `O=C1NC2(CC2)Cc2ccc(Cl)c(F)c2-c2cc(=O)n3c(c21)CC[C@H]3c1ncc(-c2ccn3c(Br)cnc3c2)[nH]1` (single isomer, unassigned) [Compound 71, (*S)-12-(5-(3-Bromoimidazo[1,2-a]pyridin-7-yl)-1H-imidazol-2-yl)-7-chloro-8-fluoro-13,14-dihydro-2H-spiro[benzo[5,6]azocino[4,3-g]indolizine-3,1′-cyclopropane]-1,10(4H,12H)-dione], for which the inhibitory constant (Ki) on Factor XIa (setting [2]) was greater than 5 µM. Also, the IC50 was greater than 10 µM at Factor XIa (setting [3]) and greater than 10000 nM against human plasma kallikrein.

With `O=C1NC2(CC2)Cc2ccc(Cl)c(F)c2-c2cc(=O)n3c(c21)CCC3c1ncc(-c2ccn3c(Br)cnc3c2)[nH]1` (single isomer, unassigned) [Compound 72, (*R)-12-(5-(3-Bromoimidazo[1,2-a]pyridin-7-yl)-1H-imidazol-2-yl)-7-chloro-8-fluoro-13,14-dihydro-2H-spiro[benzo[5,6]azocino[4,3-g]indolizine-3,1′-cyclopropane]-1,10(4H,12H)-dione], the values for the IC50 at Factor XIa (setting [1]) and on human plasma kallikrein were 0.0267 µM and 3540 nM, respectively. In addition, on Factor XIa, the Ki was found to be 0.0133 µM.

For the molecule `Cc1nc2cc(-c3cnc([C@@H]4CCc5c6c(cc(=O)n54)-c4c(ccc(Cl)c4F)CC4(CC4)NC6=O)[nH]3)ccc2s1` (stereo in doubt) [Compound 4, (S*)-7-chloro-8-fluoro-12-(5-(2-methylbenzo[d]thiazol-5-yl)-1H-imidazol-2-yl)-13,14-dihydro-2H-spiro[benzo[5,6]azocino[4,3-g]indolizine-3,1′-cyclopropane]-1,10(4H,12H)-dione], the Ki at Factor XIa (setting [2]) was 1.15 µM. Besides, the results for the IC50 at Factor XIa (setting [3]) and on human plasma kallikrein were 2.29 µM and greater than 10000 nM, respectively.

`Cc1nc2cc(-c3cnc([C@H]4CCc5c6c(cc(=O)n54)-c4c(ccc(Cl)c4F)CC4(CC4)NC6=O)[nH]3)ccc2s1` (stereo in doubt) [Compound 5, (R*)-7-chloro-8-fluoro-12-(5-(2-methylbenzo[d]thiazol-5-yl)-1H-imidazol-2-yl)-13,14-dihydro-2H-spiro[benzo[5,6]azocino[4,3-g]indolizine-3,1′-cyclopropane]-1,10(4H,12H)-dione]: the values for the IC50 at Factor XIa (setting [1]) and against human plasma kallikrein were 0.0021 µM and 60 nM, respectively. Moreover, at Factor XIa, the Ki was determined as 0.001 µM.

As to `O=C1NC2(CC2)Cc2ccc(Cl)c(F)c2-c2cc(=O)n3c(c21)CC[C@@H]3c1ncc(-c2ccc3[nH]cnc3c2)[nH]1` (stereo in doubt) [Compound 6, (R*)-12-(5-(1H-benzo[d]imidazol-5-yl)-1H-imidazol-2-yl)-7-chloro-8-fluoro-13,14-dihydro-2H-spiro[benzo[5,6]azocino[4,3-g]indolizine-3,1′-cyclopropane]-1,10(4H,12H)-dione], the IC50 at Factor XIa (setting [1]) came to 0.0006 µM; on human plasma kallikrein it was 60 nM. Also, the Ki at Factor XIa turned out to be 0.0003 µM.

Consider `O=C1NC2(CC2)Cc2ccc(Cl)c(F)c2-c2cc(=O)n3c(c21)CC[C@H]3c1ncc(-c2ccn3ccnc3c2)[nH]1` (stereo in doubt) [Compound 7, (S*)-7-chloro-8-fluoro-12-(5-(imidazo[1,2-a]pyridin-7-yl)-1H-imidazol-2-yl)-13,14-dihydro-2H-spiro[benzo[5,6]azocino[4,3-g]indolizine-3,1′-cyclopropane]-1,10(4H,12H)-dione], for which the figures for the concentration for half-maximal inhibition (IC50) at Factor XIa (setting [1]) and against human plasma kallikrein were 0.0023 µM and 420 nM, respectively. Also, at Factor XIa, the Ki was determined as 0.0011 µM.

As for `O=C1NC2(CC2)Cc2ccc(Cl)c(F)c2-c2cc(=O)n3c(c21)CC[C@@H]3c1ncc(-c2ccn3ccnc3c2)[nH]1` (stereo in doubt) [Compound 8, (R*)-7-chloro-8-fluoro-12-(5-(imidazo[1,2-a]pyridin-7-yl)-1H-imidazol-2-yl)-13,14-dihydro-2H-spiro[benzo[5,6]azocino[4,3-g]indolizine-3,1′-cyclopropane]-1,10(4H,12H)-dione], the IC50 at Factor XIa (setting [1]) is 0.0019 µM; against human plasma kallikrein it was 470 nM. Also, the Ki at Factor XIa worked out at 0.0009 µM.

In the case of `O=C1NC2(CC2)Cc2ccc(Cl)c(F)c2-c2cc(=O)n3c(c21)CC[C@H]3c1ncc(-c2ccn3cnnc3c2)[nH]1` (stereo in doubt) [Compound 15, (S*)-12-(5-([1,2,4]triazolo[4,3-a]pyridin-7-yl)-1H-imidazol-2-yl)-7-chloro-8-fluoro-13,14-dihydro-2H-spiro[benzo[5,6]azocino[4,3-g]indolizine-3,1′-cyclopropane]-1,10(4H,12H)-dione], the Ki on Factor XIa (setting [2]) was 2.91 µM. Besides, the values for the half-maximal inhibitory concentration (IC50) at Factor XIa (setting [3]) and on human plasma kallikrein were 5.82 µM and greater than 10000 nM, respectively.

With `O=C1NC2(CC2)Cc2ccc(Cl)c(F)c2-c2cc(=O)n3c(c21)CC[C@@H]3c1ncc(-c2ccn3cnnc3c2)[nH]1` (stereo in doubt) [Compound 18, (R*)-12-(5-([1,2,4]triazolo[4,3-a]pyridin-7-yl)-1H-imidazol-2-yl)-7-chloro-8-fluoro-13,14-dihydro-2H-spiro[benzo[5,6]azocino[4,3-g]indolizine-3,1′-cyclopropane]-1,10(4H,12H)-dione], the IC50 at Factor XIa (setting [1]) was 0.0132 µM; on human plasma kallikrein, 820 nM. Moreover, the inhibition constant Ki at Factor XIa was 0.0066 µM.

On to `O=C1NC2(CC2)Cc2ccc(Cl)c(F)c2-c2cc(=O)n3c(c21)CC[C@@H]3c1ncc(-c2ccc3[nH]ncc3c2)[nH]1` (stereo in doubt) [Compound 19, (R*)-12-(5-(1H-indazol-5-yl)-1H-imidazol-2-yl)-7-chloro-8-fluoro-13,14-dihydro-2H-spiro[benzo[5,6]azocino[4,3-g]indolizine-3,1′-cyclopropane]-1,10(4H,12H)-dione], for which the IC50 on Factor XIa (setting [1]) is 0.001 µM; against human plasma kallikrein it was 20 nM. Besides, on Factor XIa, the inhibition constant Ki is 0.0005 µM.

For `O=C1NC2(CC2)Cc2ccc(Cl)c(F)c2-c2cc(=O)n3c(c21)CC[C@@H]3c1ncc(-c2ccc3cncn3c2)[nH]1` (stereo in doubt) [Compound 22, (R*)-7-chloro-8-fluoro-12-(5-(imidazo[1,5-a]pyridin-6-yl)-1H-imidazol-2-yl)-13,14-dihydro-2H-spiro[benzo[5,6]azocino[4,3-g]indolizine-3,1′-cyclopropane]-1,10(4H,12H)-dione], the Ki on Factor XIa (setting [2]) was 2.54 µM. Besides, the values for the half-maximal inhibitory concentration (IC50) at Factor XIa (setting [3]) and at human plasma kallikrein were 5.07 µM and greater than 10000 nM, respectively.

As to `O=C1NC2(CC2)Cc2ccc(Cl)c(F)c2-c2cc(=O)n3c(c21)CC[C@H]3c1ncc(-c2ccc3cncn3c2)[nH]1` (stereo in doubt) [Compound 23, (S*)-7-chloro-8-fluoro-12-(5-(imidazo[1,5-a]pyridin-6-yl)-1H-imidazol-2-yl)-13,14-dihydro-2H-spiro[benzo[5,6]azocino[4,3-g]indolizine-3,1′-cyclopropane]-1,10(4H,12H)-dione], the results for the IC50 at Factor XIa (setting [1]) and against human plasma kallikrein were 0.007 µM and 540 nM, respectively. For the same molecule, the Ki on Factor XIa was 0.0035 µM.

On to `COCCN1C(=O)c2c(cc(=O)n3c2CC[C@@H]3c2ncc(-c3ccc(N)nc3F)[nH]2)-c2c(ccc(Cl)c2F)CC12CC2` (stereo in doubt) [Compound 24, (R*)-12-(5-(6-amino-2-fluoropyridin-3-yl)-1H-imidazol-2-yl)-7-chloro-8-fluoro-2-(2-methoxyethyl)-13,14-dihydro-2H-spiro[benzo[5,6]azocino[4,3-g]indolizine-3,1′-cyclopropane]-1,10(4H,12H)-dione], for which the IC50 on Factor XIa (setting [1]) was greater than 0.01 µM; at human plasma kallikrein it was greater than 10000 nM. The Ki on Factor XIa (setting [2]) is greater than 5 µM.

The term IC50 denotes the midpoint of a concentration-inhibition curve. A word on the Ki: it is a dissociation constant, usually derived from enzyme kinetics or from competition with a known ligand.
